Measurements: ChEMBL document CHEMBL6127106, “Novel Far-Red Fluorescent 1,4-Dihydropyridines for L-Type Calcium Channel Imaging” (J Med Chem, 2024)
pIC50: −log10 of the molar value.

Key:
[1] = target: T1, Voltage-gated L-type calcium channel (Homo sapiens, UniProt Q13936+Q13698+Q01668+O60840); assay: Antagonist activity at L-type calcium channel in human mesoangioblast-derived myotube assessed as reduction in KCL-mediated depolarization of cytosolic (Ca2+) increase at 10 uM incubated for 25 mins in presence of KCl by live-cell imaging based analysis
[2] = target: T2, Voltage-dependent L-type calcium channel subunit alpha-1C (Homo sapiens, UniProt Q13936); assay: Antagonist activity at Cav1.2 (unknown origin) stably expressed in HEK293 cells at 10 uM assessed as inhibition of LTCC current by Whole cell patch clamp assay relative to control; assay type: cell-based; conditions: read-out: Activity
T2 sequence (Q13936 whole entry): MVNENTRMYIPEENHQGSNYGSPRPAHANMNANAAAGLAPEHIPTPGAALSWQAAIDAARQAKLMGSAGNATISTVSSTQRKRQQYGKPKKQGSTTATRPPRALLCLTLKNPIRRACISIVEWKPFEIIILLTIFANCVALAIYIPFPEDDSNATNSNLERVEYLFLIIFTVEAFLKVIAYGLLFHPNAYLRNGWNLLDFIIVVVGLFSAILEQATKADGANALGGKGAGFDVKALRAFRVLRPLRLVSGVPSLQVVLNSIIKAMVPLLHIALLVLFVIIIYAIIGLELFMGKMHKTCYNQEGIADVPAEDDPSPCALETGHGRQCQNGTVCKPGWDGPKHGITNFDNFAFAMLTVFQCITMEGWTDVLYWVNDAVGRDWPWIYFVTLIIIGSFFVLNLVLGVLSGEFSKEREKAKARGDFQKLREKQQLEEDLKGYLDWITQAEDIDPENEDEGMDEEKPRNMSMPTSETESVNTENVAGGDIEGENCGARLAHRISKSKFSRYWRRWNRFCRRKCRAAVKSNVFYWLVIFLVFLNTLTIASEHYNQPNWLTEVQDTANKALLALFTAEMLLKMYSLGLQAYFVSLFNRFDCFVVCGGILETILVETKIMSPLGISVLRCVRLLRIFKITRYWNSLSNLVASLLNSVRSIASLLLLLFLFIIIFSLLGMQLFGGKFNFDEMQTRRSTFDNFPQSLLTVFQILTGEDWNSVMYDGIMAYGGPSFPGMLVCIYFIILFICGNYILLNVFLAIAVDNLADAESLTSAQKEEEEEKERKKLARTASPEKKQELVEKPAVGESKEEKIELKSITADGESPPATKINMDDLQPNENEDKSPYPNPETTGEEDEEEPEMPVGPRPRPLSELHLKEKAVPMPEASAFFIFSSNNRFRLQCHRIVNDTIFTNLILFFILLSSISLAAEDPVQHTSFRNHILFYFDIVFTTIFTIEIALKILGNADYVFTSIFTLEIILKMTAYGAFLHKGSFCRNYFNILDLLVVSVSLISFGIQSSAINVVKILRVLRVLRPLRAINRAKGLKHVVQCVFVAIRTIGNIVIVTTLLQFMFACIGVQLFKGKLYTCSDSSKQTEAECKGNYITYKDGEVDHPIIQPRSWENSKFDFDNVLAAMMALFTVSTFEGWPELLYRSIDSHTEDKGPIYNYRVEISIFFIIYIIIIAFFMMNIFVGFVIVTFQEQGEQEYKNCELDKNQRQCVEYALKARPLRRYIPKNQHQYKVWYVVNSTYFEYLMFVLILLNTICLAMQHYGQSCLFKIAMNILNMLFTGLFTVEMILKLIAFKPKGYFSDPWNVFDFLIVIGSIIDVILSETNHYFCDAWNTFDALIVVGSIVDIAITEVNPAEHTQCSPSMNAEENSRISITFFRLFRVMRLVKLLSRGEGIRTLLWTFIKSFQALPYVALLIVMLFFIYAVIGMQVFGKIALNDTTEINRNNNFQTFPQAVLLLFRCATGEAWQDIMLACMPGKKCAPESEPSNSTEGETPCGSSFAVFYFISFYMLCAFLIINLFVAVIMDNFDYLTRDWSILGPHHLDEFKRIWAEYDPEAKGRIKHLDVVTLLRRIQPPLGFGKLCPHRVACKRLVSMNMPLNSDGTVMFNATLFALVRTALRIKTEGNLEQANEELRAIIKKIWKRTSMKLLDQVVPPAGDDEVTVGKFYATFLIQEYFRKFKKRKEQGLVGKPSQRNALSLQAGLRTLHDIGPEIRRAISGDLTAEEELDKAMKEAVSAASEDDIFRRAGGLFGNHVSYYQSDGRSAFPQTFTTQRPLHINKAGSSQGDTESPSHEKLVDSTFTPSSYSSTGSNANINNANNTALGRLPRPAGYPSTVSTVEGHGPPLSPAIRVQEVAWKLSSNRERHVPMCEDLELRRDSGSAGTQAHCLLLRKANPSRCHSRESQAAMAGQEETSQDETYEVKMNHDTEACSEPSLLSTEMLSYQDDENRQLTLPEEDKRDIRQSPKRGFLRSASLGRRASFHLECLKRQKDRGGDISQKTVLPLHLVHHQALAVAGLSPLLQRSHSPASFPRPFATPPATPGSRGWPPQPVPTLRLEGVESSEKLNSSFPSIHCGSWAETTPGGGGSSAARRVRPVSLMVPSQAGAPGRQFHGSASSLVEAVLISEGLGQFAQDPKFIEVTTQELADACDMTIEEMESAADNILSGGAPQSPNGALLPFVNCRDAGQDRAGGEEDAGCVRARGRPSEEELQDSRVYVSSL

[3] = target: T2, Voltage-dependent L-type calcium channel subunit alpha-1C; assay: Antagonist activity at Cav1.2 (unknown origin) stably expressed in HEK293 cells assessed as inhibition of LTCC current by Whole cell patch clamp assay; assay type: cell-based; conditions: for Activity: human, hek293
[4] = target: T1, Voltage-gated L-type calcium channel; assay: Antagonist activity at L-type calcium channel in Ca1520-loade human SH-SY5Y cells assessed as inhibition of KCL-mediated depolarization of cytosolic (Ca2+) increase incubated for 5 mins in presence of KCl by live-cell imaging based analysis
[5] = target: T2, Voltage-dependent L-type calcium channel subunit alpha-1C; assay: Binding affinity to GFP-tagged Cav1.2alpha 1C (unknown orign) transfected with human HeLa cells assessed as increase in fluorescence intensity at 50 nM incubated for 5 mins by fluorescence based confocal microscopy analysis; assay type: cell-based; conditions: 0.05 µM
[6] = target: T2, Voltage-dependent L-type calcium channel subunit alpha-1C; assay: Binding affinity to GFP-tagged Cav1.2alpha 1C (unknown orign) transfected with human HeLa cells assessed as increase in fluorescence intensity at 25 to 100 nM in presence of nifedipine by fluorescence based confocal microscopy analysis; assay type: cell-based; conditions: dose 25-100 nM
[7] = target: T2, Voltage-dependent L-type calcium channel subunit alpha-1C; assay: Binding affinity to GFP-tagged Cav1.2alpha 1C (unknown orign) transfected with human HeLa cells assessed as increase in fluorescence intensity in cytoplasm at 25 to 100 nM in presence of nifedipine by fluorescence based confocal microscopy analysis; assay type: cell-based; conditions: dose 25-100 nM
[8] = target: T1, Voltage-gated L-type calcium channel; assay: Binding affinity to LTCC in endogenously expressing human SH-SY5Y cells assessed as increase in fluorescence intensity at 50 to 100 nM in presence of nifedipine by fluorescence based confocal microscopy analysis; assay type: cell-based; conditions: dose 50-100 nM

Activity [1] | SMILES | inhibition at 10 µM [2] [%] | pIC50 [3] | also measured
Active | COC(=O)C1=C(C)NC(C)=C(C(=O)OCCCCCCCCNC(=O)CCCCC[N+]2=C(/C=C/C=C/C=C3/N(C)c4ccccc4C3(C)C)C(C)(C)c3ccccc32)C1c1cccc(Cl)c1Cl (stereo unspecified) | 46 |  | Activity [3]: Not Active
Active | COC(=O)C1=C(C)NC(C)=C(C(=O)OCCOCCNC(=O)CCCCC[N+]2=C(/C=C/C=C/C=C3N(C)c4ccccc4C3(C)C)C(C)(C)c3ccccc32)[C@@H]1c1cccc(Cl)c1Cl | 70 | 5.19 | 
Active | COC(=O)C1=C(C)NC(C)=C(C(=O)OCCOCCNC(=O)CCCCC[N+]2=C(/C=C/C=C/C=C3/N(C)c4ccccc4C3(C)C)C(C)(C)c3ccccc32)C1c1ccccc1[N+](=O)[O-] (stereo unspecified) | 83 | 5.66 | 
Active | COC(=O)C1=C(C)NC(C)=C(C(=O)OCCCCCCNC(=O)CCCCC[N+]2=C(/C=C/C=C/C=C3/N(C)c4ccccc4C3(C)C)C(C)(C)c3ccccc32)C1c1ccccc1[N+](=O)[O-] (stereo unspecified) | 52 | 4.90 | 
Active | COC(=O)C1=C(C)NC(C)=C(C(=O)OCCNC(=O)CCCCC[N+]2=C(/C=C/C=C/C=C3/N(C)c4ccccc4C3(C)C)C(C)(C)c3ccccc32)C1c1cccc(Cl)c1Cl (stereo unspecified) | 72 | 5.37 | 
Active | COC(=O)C1=C(C)NC(C)=C(C(=O)OCCCCCCNC(=O)CCCCC[N+]2=C(/C=C/C=C/C=C3/N(C)c4ccccc4C3(C)C)C(C)(C)c3ccccc32)C1c1cccc(Cl)c1Cl (stereo unspecified) | 50 | 4.90 | 
Active | COC(=O)C1=C(C)NC(C)=C(C(=O)OCCOCCNC(=O)CCCCC[N+]2=C(/C=C/C=C/C=C3\N(C)c4ccccc4C3(C)C)C(C)(C)c3ccccc32)[C@H]1c1cccc(Cl)c1Cl | 94 | 6.19 | IC50 [4]: 1.08 µM; Activity ([4]; human, 5 min, dose 0.1-10000 nM): Dose-Dependent Effect; Activity [5]: Active; Activity [6]: Not Active; Activity [7]: Not Active; Activity [8]: Not Active
Active | COC(=O)C1=C(C)NC(C)=C(C(=O)OCCOCCOCCNC(=O)CCCCC[N+]2=C(/C=C/C=C/C=C3\N(C)c4ccccc4C3(C)C)C(C)(C)c3ccccc32)C1c1cccc(Cl)c1Cl (stereo unspecified) | 77 | 5.46 | 
Active | COC(=O)C1=C(C)NC(C)=C(C(=O)OCCOCCNC(=O)CCCCC[N+]2=C(/C=C/C=C/C=C3/N(C)c4ccccc4C3(C)C)C(C)(C)c3ccccc32)C1c1cccc(Cl)c1Cl (stereo unspecified) | 62 | 5.13 | 
Active | COC(=O)C1=C(C)NC(C)=C(C(=O)OCCCCCCCCNC(=O)CCCCC[N+]2=C(/C=C/C=C/C=C3/N(C)c4ccccc4C3(C)C)C(C)(C)c3ccccc32)C1c1ccccc1[N+](=O)[O-] (stereo unspecified) | 87 | 5.72 | 
Active | COC(=O)C1=C(C)NC(C)=C(C(=O)OCCOCCNC(=O)CCCCC[N+]2=C(/C=C/C=C/C=C3/N(C)c4ccccc4C3(C)C)C(C)(C)c3ccccc32)C1c1ccccc1/C=C/C(=O)OC(C)(C)C (stereo unspecified) | 97 | 5.97 | 
 | COC(=O)C1=C(C)NC(C)=C(C(=O)OC)C1c1ccccc1[N+](=O)[O-] [NIFEDIPINE] | 102 |  | 

SMILES | Activity [1] | inhibition at 10 µM [2] [%] | pIC50 [3] | also measured
COC(=O)C1=C(C)NC(C)=C(C(=O)OCCCCCCNC(=O)CCCCCNC(=O)Oc2ccc(/C=C/C3=[N+]4C(=Cc5ccc(-c6cccs6)n5[B-]4(F)F)C=C3)cc2)C1c1cccc(Cl)c1Cl (stereo unspecified) | Not Active | 24 |  | Activity [3]: Not Active
COC(=O)C1=C(C)NC(C)=C(C(=O)OCCOCCNC(=O)CCCCC[N+]2=C(/C=C/C=C/C=C3/N(C)c4ccccc4C3(C)C)C(C)(C)c3ccccc32)C1c1ccccc1OS(=O)(=O)F (stereo unspecified) | Active | 88 | 5.82 | 
